Series [1] can be described thus: Subchronic effect on body weight in female diet-induced obese (DIO) C57BL/6NCrl mice (method 2). It is filed as in vivo. The settings on record: 3 weeks; for Overall weight change: mean ± SEM. How it is done:
Female C57BL/6NCrl mice were housed in groups in a specific pathogen-free barrier facility on a 12 h light/dark cycle with free access to water and high-fat diet. After 14 weeks on high-fat diet, mice were stratified to treatment groups (n=8), so that each group had similar mean body weight.
An aged-matched group with ad libitum access to standard chow and water was included as standard control group.
Before the experiment, mice were subcutaneously (s.c.) injected with vehicle solution and weighed for 3 days to acclimate them to the procedures.
Body weight was recorded daily.
Statistical analyses were performed with Everstat 6.0 by repeated measures two-way ANOVA and Dunnett's post-hoc analyses (glucose profile) and 1-way-ANOVA, followed by Dunnett's post-hoc test (body weight, body fat). Differences versus vehicle-treated DIO control mice were considered statistically significant at the p<0.05 level.

The target of series [2] is T1, human GIP receptor (hGIP R) (Homo sapiens, UniProt P48546).
T1 construct: expressed in transfected cells; host or cells: HEK-293
T1 sequence (P48546 22-466): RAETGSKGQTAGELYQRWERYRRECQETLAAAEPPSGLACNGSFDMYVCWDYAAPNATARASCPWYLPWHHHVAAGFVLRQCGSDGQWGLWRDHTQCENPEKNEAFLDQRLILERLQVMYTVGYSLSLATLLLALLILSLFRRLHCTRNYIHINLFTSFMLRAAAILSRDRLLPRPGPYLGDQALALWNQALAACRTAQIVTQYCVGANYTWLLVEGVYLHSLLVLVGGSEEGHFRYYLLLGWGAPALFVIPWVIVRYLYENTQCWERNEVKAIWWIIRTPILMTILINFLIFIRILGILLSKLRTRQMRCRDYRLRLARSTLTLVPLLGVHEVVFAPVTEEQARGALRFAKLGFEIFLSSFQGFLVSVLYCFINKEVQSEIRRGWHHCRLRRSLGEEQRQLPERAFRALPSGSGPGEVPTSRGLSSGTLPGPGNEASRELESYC
Nature of the series: cAMP response of HEK-293 cells stably expressing human GIP receptor (HTRF). Format: cell-based. How it is done: cAMP content of cells was determined using a kit from Cisbio Corp. (cat. no. 62AM4PEC) based on HTRF (Homogenous Time Resolved Fluorescence). For preparation, cells were split into T175 culture flasks and grown overnight to near confluency in medium (DMEM/10% FBS). Medium was then removed and cells washed with PBS lacking calcium and magnesium, followed by proteinase treatment with accutase (Sigma-Aldrich cat. no. A6964). Detached cells were washed and resuspended in assay buffer (1×HBSS; 20 mM HEPES, 0.1% BSA, 2 mM IBMX) and cellular density determined. They were then diluted to 400000 cells/ml and 25 μl-aliquots dispensed into the wells of 96-well plates. For measurement, 25 μl of test compound in assay buffer was added to the wells, followed by incubation for 30 minutes at room temperature.
(In general: In TR-FRET formats the signal depends on donor and acceptor labels being close together.)

The next series relates to plasmin. Nature of the series: Enzymatic stability testing versus plasmin. It is filed as in vitro ADME. The settings on record: human, human recombinant plasmin, pH 8.3; % of degradation after 120 min; 2 μM peptide, 37° C.; read-out: Lability versus enzymatic degradation, Plasmin. How it is done:
(§1) The reaction was stopped by addition of ethanol. The samples were analyzed by LC-MS/MS. […] The metabolic lability is given as % of degradation.

Another series has as its system α-chymotrypsin. Nature of the series: Enzymatic stability testing versus α-chymotrypsin. It is filed as in vitro ADME. To be noted: human, human recombinant α-chymotrypsin, pH 8.3; % of degradation after 120 min; 2 μM peptide, 37° C.; read-out: Lability versus enzymatic degradation, α-Chymotrypsin. As to the method: as §1

Here are results for 1 compound from patent US20140206608A1 (priority 2012, published 2014).

*1 amine or outer side, *2 acyl side, *3 side chain or, on linkers, in order; H or OH if unused. Where a SMILES comes first, the peptide text is derived from it. Side-chain parts run from the residue outwards. [ ]: non-standard residue; d: D form. The star is where a group is joined. γGlu = O=C(O)[C@H](CCC(=O)[*:2])N[*:1]; Stearoyl = CCCCCCCCCCCCCCCCCC(=O)*; Aib = CC(C)(N)C(=O)O

Usually EC50 stands for the concentration that produces a half-maximal response. `CCCCCCCCCCCCCCCCCC(=O)N[C@@H](CCC(=O)NCCCC[C@H](NC(=O)[C@H](CCC(N)=O)NC(=O)[C@@H](NC(=O)[C@H](CO)NC(=O)[C@H](CC(C)C)NC(=O)[C@H](CC(=O)O)NC(=O)[C@H](CO)NC(=O)[C@@H](NC(=O)[C@H](Cc1ccccc1)NC(=O)[C@@H](NC(=O)CNC(=O)[C@H](CCC(=O)O)NC(=O)C(C)(C)NC(=O)[C@@H](N)Cc1ccc(O)cc1)[C@@H](C)O)[C@@H](C)O)[C@@H](C)CC)C(=O)N[C@@H](CCC(=O)O)C(=O)N[C@@H](CCC(=O)O)C(=O)N[C@@H](CCC(=O)O)C(=O)N[C@@H](C)C(=O)N[C@H](C(=O)N[C@@H](CCCNC(=N)N)C(=O)N[C@@H](CC(C)C)C(=O)N[C@@H](Cc1ccccc1)C(=O)N[C@H](C(=O)N[C@@H](CCC(=O)O)C(=O)N[C@@H](Cc1c[nH]c2ccccc12)C(=O)N[C@@H](CC(C)C)C(=O)N[C@@H](CCCCN)C(=O)N[C@@H](C)C(=O)NCC(=O)NCC(=O)N1CCC[C@H]1C(=O)N[C@@H](CO)C(=O)N[C@@H](CO)C(=O)NCC(=O)N[C@@H](C)C(=O)N1CCC[C@H]1C(=O)N1CCC[C@H]1C(=O)N1CCC[C@H]1C(=O)N[C@@H](CO)C(N)=O)[C@@H](C)CC)C(C)C)C(=O)O` [SEQ ID NO: 10, Y-Aib-E-G-T-F-T-S-D-L-S-I-Q-K(γE-x70)-EEEAVRLFIEWLKAGGPSSGAPPPS-NH2] (H-Y[Aib]EGTFTSDLSIQK([γGlu-Stearoyl])EEEAVRLFIEWLKAGGPSSGAPPPS-NH2): the “decrease of body weight, relative change from baseline” value in series [1] (3 μg/kg s.c. once daily) is on record as 8.6%; in series [1] (10 μg/kg s.c. once daily) it was 14.3%. Also, the Overall weight change in series [1] (3 μg/kg s.c. once daily) is -3.6 ± 1.0 g; in series [1] (10 μg/kg s.c. once daily) it was -5.5 ± 0.8 g. The same compound came in with an EC50 in series [2] of 6.7 pM. Also, the metabolised at 2 h, 2 μM in the series on plasmin amounted to 0%; in the series with α-chymotrypsin, 48%.
